{"source": "patent US12622901B2", "about": "“Compounds for tau protein degradation” (Dana-Farber Cancer Institute, Inc., priority 2017, dated 2026)", "key": {"A152T neurons": {"test_system": "A152T neurons", "assay": "Neuronal viability / rescue of stress vulnerability to β-amyloid (1-42) peptide", "details": "A152T neurons differentiated 8 weeks, FIG. 7"}, "[1]": {"assay": "In vivo pharmacokinetic study of plasma and brain tissue in mice", "details": "male CD-1 mice, 30 mg/kg intraperitoneal", "method": "(§1) To determine whether the compounds of the present disclosure are capable of crossing the blood brain barrier (BBB), a key property for use of these compounds as CNS therapeutics, compound 3 was administered to mice in a pharmacokinetic study of plasma and brain tissue. A stable formulation compatible with chronic administration was prepared prior to administration, and analytical methods for measuring concentration of the compound in plasma and brain tissue were developed. Mice were additionally monitored for tolerability for up to 24 hours.\nAnimal Husbandry: Male CD-1 mice were group housed during a 2-3 day acclimation prior to the study at an animal room environment with a controlled environment (target conditions: temperature 18-26° C., relative humidity 30-70%, 12 hours artificial light and 12 hours dark). All animals had access to Certified Rodent Diet and water ad libitum.\n(§2) For intraperitoneal (IP) dosing, the dose formulation was administered with a dose volume determined by the animals' body weight collected on the morning of dosing day.\nSample Collection & Processing:\nBlood Samples: A blood sample (about 0.03 mL per time point) was collected from each mouse into polypropylene tubes at each timepoint. All blood samples were transferred into pre-chilled commercial EDTA-K2 tubes or pre-chilled plastic microcentrifuge tubes containing 2 μL of EDTA-K2 as anti-coagulant and placed on wet ice until centrifugation. Each collected blood sample was centrifuged for 15 minutes at 4° C. and 3000 g for plasma collection. Plasma from each mouse was transferred into a pre-labeled polypropylene tube in dry ice at each time point. After terminal collection, all plasmas were stored at approximately −80° C. until bioanalysis.\nBrain Samples: Whole brain was dissected at each designated time point and rinsed twice cold in deionized water before processing. They were then blotted on filter paper, weighed and homogenized with 5-fold of cold 15 mM PBS/MeOH (V:V, 2:1) using mechanical method. The samples were kept with ice water when homogenizing, and further stored at −80° C. until bioanalysis.\nBioanalytical Method Development: A LC-MS/MS method was developed and used for the quantitative determination of test compound concentration in blood and brain with a calibration curve applied to determine the limits of quantification.\nIn Vivo Sample Analysis: Plasma and brain concentration versus time data along with C^max, Tmax, T1/2, and AUC(0-t) was analyzed by non-compartmental approaches using the Phoenix WinNonlin 6.3 software program."}, "[2]": {"assay": "Tolerability monitoring of mice for up to 24 hours", "format": "in vivo", "details": "male CD-1 mice, 30 mg/kg intraperitoneal, monitored up to 24 hours", "method": "as §1"}, "[3]": {"assay": "Dose formulation in 20% PEG400 in water", "format": "physicochemical", "details": "5.00 mg/mL in 20% PEG400 in water", "method": "as §2"}, "tau protein": {"biological_target": "T1, tau protein (Homo sapiens, UniProt P10636, A469T)", "T1 construct": "cultured human differentiated frontotemporal lobar dementia (FTD) neurons; endogenous in cells; host or cells: human differentiated FTD neurons, tau-A152T (line 19-5-RC6)", "T1 sequence (P10636 1-441 isoform P10636-8 A152T)": "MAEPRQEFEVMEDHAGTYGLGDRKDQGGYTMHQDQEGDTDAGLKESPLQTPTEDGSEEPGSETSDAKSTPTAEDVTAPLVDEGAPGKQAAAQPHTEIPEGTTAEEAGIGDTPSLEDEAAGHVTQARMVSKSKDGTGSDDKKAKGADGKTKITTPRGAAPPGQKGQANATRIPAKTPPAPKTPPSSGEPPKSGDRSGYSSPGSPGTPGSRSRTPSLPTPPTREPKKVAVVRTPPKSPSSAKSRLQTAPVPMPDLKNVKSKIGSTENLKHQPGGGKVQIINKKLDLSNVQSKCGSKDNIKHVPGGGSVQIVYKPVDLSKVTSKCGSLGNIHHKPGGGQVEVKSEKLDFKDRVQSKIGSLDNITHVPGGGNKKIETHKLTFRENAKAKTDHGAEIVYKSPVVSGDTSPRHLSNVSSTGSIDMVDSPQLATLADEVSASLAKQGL", "assay": "Tau degradation assay (western blot) in human tau-A152T neurons", "format": "cell-based", "details": "6-week differentiated A152T neurons; treatment for 24 hours; FIG. 6", "method": "Example compounds 1-12 were evaluated for their ability to degrade tau protein in cultured human differentiated frontotemporal lobar dementia (FTD) neurons. […] For each condition, 1 well of differentiated neuronal cells (6 well-plate) was washed and collected in PBS, pelleted and lysed in RIPA buffer (Boston Bio-Products) with 2% SDS (Sigma), protease inhibitors (Roche Complete Mini tablets), and phosphatase inhibitors (Sigma), followed by sonication in a water sonicator (Bransonic Ultrasonic Baths, Thomas Scientific) for 5 min, and centrifugation at 20,000 g for 15 min. Supernatants were transferred to new tubes, total protein concentration was quantified with the Pierce BCA Protein Assay Kit (Thermo), and SDS-PAGE gels were loaded with 10 μg total protein per well (pre-boiled samples). Western blots were performed with the Novex NuPAGE SDS-PAGE Gel System (Invitrogen). All samples were resolved in 7% Tris-Acetate gels with Tris-Acetate running buffer (Invitrogen). Blots were probed with antibodies against total tau (TAU5) and phosphosrylated tau (Ser396), along with β-actin as a loading control; followed by corresponding HRP-linked secondary antibodies (Cell Signaling Technology), and SuperSignal West Pico Chemiluminescent Substrate (Thermo) detection. Membranes were exposed to autoradiographic film (LabScientific) and films were scanned using an Epson Perfection V800 Photo Scanner. Protein band intensities (pixel mean intensity) were quantified using Adobe Photoshop CS5 Histogram function. Whereas the vehicle alone (DMSO) had no effect on tau, varying degrading activity was observed amongst the compounds, however with overall similar relative levels of degrading activity between tau-A152T neurons and tau-P301L neurons. Compounds were added at the doses indicated of either 0.1, 1, 5, or 10 μM.\nFour-week differentiated neurons, both non-mutant (8330-8) and tau-A152T (19-5-RC6) were employed. The neurons were treated with T807 for 24 hours (at 10 μg/mL=59.4 μM). One well of differentiated neuronal cells (6 well-plate, treated or untreated) was washed and collected in PBS, pelleted and directly lysed in 200 μL of Sample Buffer (New England Biolabs) supplemented with 3X DTT, boiled for 15 min and 10 μL of each lysate was run by SDS-PAGE in a 4-12% Bis-Tris Gel, with MOPS running buffer. Blots were probed with antibodies to total tau (DA9) and phosphorylated tau (Ser396, PHF1, AT8) along with GAPDH as a loading control.\nExample compounds 2-5 were reevaluated for their ability to degrade tau protein in human FTD neurons as well as evaluate their effect on E3 ubiquitin ligases CRBN, VHL, and CHIP (FIG. 4A-E). For each control and treatment, 1 well of differentiated neuronal cells (6 well-plate) was washed and collected in PBS, pelleted and lysed in RIPA buffer (Boston Bio-Products) with 2% SDS (Sigma), protease inhibitors (Roche Complete Mini tablets), and phosphatase inhibitors (Sigma), followed by sonication in a water sonicator (Bransonic Ultrasonic Baths, Thomas Scientific) for 5 min, and centrifugation at 20,000 g for 15 min. Supernatants were transferred to new tubes, total protein concentration was quantified with the Pierce BCA Protein Assay Kit (Thermo), and SDS-PAGE gels were loaded with 10 μg total protein per well (pre-boiled samples). […] Protein band intensities (pixel mean intensity) were quantified using Adobe Photoshop CS5 Histogram function. […]"}}, "note": "“Also recorded” adds a separate entry of the source."}
{"smiles": "O=C(CCc1ccc2c(c1)[nH]c1ccncc12)NCCOCCOCCNc1cccc2c1C(=O)N(C1CCC(=O)NC1=O)C2=O", "note": "(stereo not shown) [Compound 3, N-(2-(2-(2-((2-(2,6-dioxopiperidin-3-yl)-1,3-dioxoisoindolin-4-yl)amino)ethoxy)ethoxy)ethyl)-3-(5H-pyrido[4,3-b]indol-7-yl)propanamide]", "values": [{"measurement": "rescue of stress vulnerability", "setting": "A152T neurons; 8 h pre-treatment, then 10 μM β-amyloid (1-42) peptide for 16 h", "result": "effective at rescuing stress vulnerability"}, {"measurement": "effect on neuronal viability", "setting": "A152T neurons; compound alone", "result": "no effect on neuronal viability"}, {"measurement": "brain penetration / crossing the blood-brain barrier", "setting": "[1]; 20% PEG400/water, n=3 per group, 30 mg/kg", "result": "capable of brain penetration; also recorded: capable of crossing the blood-brain barrier"}, {"measurement": "AUC0-last, Mean Brain", "setting": "[1]; brain", "result": 74.3, "unit": "ng·h/mL"}, {"measurement": "Cmax, Mean Brain", "setting": "[1]; brain", "result": 56.4, "unit": "ng/mL"}, {"measurement": "Tmax, Mean Brain", "setting": "[1]; brain", "result": 0.500, "unit": "h"}, {"measurement": "AUC0-last, Mean Plasma", "setting": "[1]; plasma", "result": 6938, "unit": "ng·h/mL"}, {"measurement": "Cmax, Mean Plasma", "setting": "[1]; plasma", "result": 4640, "unit": "ng/mL"}, {"measurement": "T1/2, Mean Plasma", "setting": "[1]; plasma", "result": 7.23, "unit": "h"}, {"measurement": "Tmax, Mean Plasma", "setting": "[1]; plasma", "result": 1.00, "unit": "h"}, {"measurement": "tolerability / adverse effects", "setting": "[2]", "result": "no adverse effects were observed; also recorded: well tolerated"}, {"measurement": "appearance/stability of dose formulation", "setting": "[3]", "result": "clear, stable solution"}, {"measurement": "dose-dependency of effect on tau", "setting": "tau protein", "result": "dose dependent effect on tau"}]}
